Test results reported in patent publication US5861410A, “Tetrahydro-beta-carbolines” (Eli Lilly and Company, priority 1997, dated 1999).
Counter-ions that a name gives are not always drawn.

Key:
5HT2A = target: T1, 5HT2A (Homo sapiens, UniProt P28223); assay: Cell assay using human cells, 5HT2A; type: binding; conditions: Table I
T1 construct: expressed in transfected cells
Procedure: (§1) The Kd and Bmax values from the saturation assays were determined for best fit to a one-site or a two-site binding model using a partial F-test. De Lean, A., A. A. Hancock, and R. J. Lefkowitz, Mol. Pharmacol. 21:5-16 (1981). The following equation was used for a one-site binding model, [formula] where Bound=amount of [^3 H]5-HT specifically bound, Bmax =maximum number of binding sites, Kd =equilibrium dissociation constant and [L]=free concentration of [^3 H]5-HT, or a two-site binding model, [formula] where Bound=amount of [^3 H]5-HT specifically bound, Bmax1 =maximum number of high affinity binding sites, Bmax2 =maximum number of low affinity binding sites, Kd1 =equilibrium dissociation constant for the high affinity site, Kd2 =equilibrium dissociation constant for the low affinity site and [L]=free concentration of [^3 H]5-HT. The IC50 values from the competition assays, the binding parameters for the IP3 standard curve and the EC50 and Emax values from the IP3 assays were determined by nonlinear regression analysis of four parameter logistic equations (Systat, Systat Inc, Evanston, Ill.). De Lean, A., A. A. Hancock, and R. J. Lefkowitz, Mol. Pharmacol., 21:5-16 (1981). The IC50 values were converted to Ki values using the Cheng-Prusoff equation. Cheng, Y., and W. H. Prusoff, Biochem. Pharmacol., 22:3099-3108 (1973).
(§2) The following Cell assays use Human Cells

5HT2B = target: T2, 5HT2B (Homo sapiens, UniProt P41595); assay: Cell assay using human cells, 5HT2B (radioligand binding); conditions: Table I
T2 construct: expressed in transfected cells
T2 sequence (P41595 whole entry): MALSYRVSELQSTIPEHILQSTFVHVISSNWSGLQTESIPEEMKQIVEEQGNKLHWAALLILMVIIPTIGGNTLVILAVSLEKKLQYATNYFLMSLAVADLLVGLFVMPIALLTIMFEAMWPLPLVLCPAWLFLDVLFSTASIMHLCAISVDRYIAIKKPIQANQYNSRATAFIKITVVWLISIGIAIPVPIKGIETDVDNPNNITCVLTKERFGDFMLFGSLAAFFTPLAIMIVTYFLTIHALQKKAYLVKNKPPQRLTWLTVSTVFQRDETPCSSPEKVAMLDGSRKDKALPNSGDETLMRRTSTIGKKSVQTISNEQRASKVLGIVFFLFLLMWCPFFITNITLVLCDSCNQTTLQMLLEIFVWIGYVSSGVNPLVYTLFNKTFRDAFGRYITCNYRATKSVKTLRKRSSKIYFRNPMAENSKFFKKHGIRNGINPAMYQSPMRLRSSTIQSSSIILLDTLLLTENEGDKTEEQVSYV

5HT2C = target: T3, 5HT2C (Homo sapiens, UniProt P28335); assay: Cell assay using human cells, 5HT2C; type: binding; conditions: Table I
T3 construct: expressed in transfected cells
T3 sequence (P28335 33-458): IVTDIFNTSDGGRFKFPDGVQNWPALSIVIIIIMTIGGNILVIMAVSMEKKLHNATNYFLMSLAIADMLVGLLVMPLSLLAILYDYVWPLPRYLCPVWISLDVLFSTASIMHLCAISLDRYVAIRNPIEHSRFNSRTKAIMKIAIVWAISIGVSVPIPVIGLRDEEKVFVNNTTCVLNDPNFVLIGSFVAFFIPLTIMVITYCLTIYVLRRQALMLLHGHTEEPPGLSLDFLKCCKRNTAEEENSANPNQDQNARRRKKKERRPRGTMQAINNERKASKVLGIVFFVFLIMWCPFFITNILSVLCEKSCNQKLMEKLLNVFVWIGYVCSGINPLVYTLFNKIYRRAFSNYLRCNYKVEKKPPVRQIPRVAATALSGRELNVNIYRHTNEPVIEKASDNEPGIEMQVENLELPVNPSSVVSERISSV
Procedure: as §1, §2

5-HT1c receptor = target: T4, 5-HT1c receptor (Bos taurus, UniProt A0AAA9SBU1); assay: Assay for 5-HT1c affinity, radioligand binding (selectivity against 5-HT2 receptor assay); parameters: species or system beef; conditions: low IC50 in the 5-HT1c receptor assay and a higher IC50 in the 5-HT2 receptor assay
T4 sequence (A0AAA9SBU1 33-457): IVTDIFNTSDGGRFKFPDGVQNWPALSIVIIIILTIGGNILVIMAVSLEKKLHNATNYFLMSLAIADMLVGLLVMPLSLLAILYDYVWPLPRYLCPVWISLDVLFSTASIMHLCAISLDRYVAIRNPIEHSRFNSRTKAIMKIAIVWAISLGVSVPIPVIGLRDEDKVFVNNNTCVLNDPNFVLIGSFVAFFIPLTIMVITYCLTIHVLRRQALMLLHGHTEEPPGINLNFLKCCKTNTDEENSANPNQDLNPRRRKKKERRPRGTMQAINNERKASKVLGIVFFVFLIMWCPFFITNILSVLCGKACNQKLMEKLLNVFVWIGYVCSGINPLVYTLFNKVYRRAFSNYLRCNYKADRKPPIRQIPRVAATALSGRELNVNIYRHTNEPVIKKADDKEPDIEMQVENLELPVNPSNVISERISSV
Procedure: Beef brain was removed immediately after slaughter, and choroid plexus were dissected over ice. […] The brain of each was immediately removed and the cerebral cortex was dissected over ice. Tissues were homogenized in 9 volumes of 0.32 mol/L sucrose and centrifuged at 1,000×g for 10 minutes. The supernatant was centrifuged at 17,000 x g for 20 minutes. The pellet was suspended in 100 volumes of 50 mM Tris-HCl (pH7.4), incubated at 37° C. for 10 minutes and centrifuged at 50,000×g for 10 minutes, and the process was repeated three times. The final pellets were frozen at -70° C. and used within 2 weeks. Pellets were rehydrated with physiological buffer prior to use.
For 5-HT1c receptor assays increasing concentrations of experimental compound, 50 mM Tris HCl buffer pH 7.4 , and tritiated mesulergine (2.0 nM) (^3 H ligand) were combined in polystyrene tubes at room temperature. The reaction was initiated by the addition of the resuspended choroid plexus tissue which had been preincubated at 37° C. for 20 minutes. The reaction mixture was incubated in a 37° C. water bath for 15 minutes.
The reactions were terminated by rapid filtration, (Brandel Cell Harvestor), through Whatman GF/B glass filters that had been presoaked in Tris buffer pH 7.4. The filters were then washed 2 times with 5 ml of ice cold Tris buffer pH 7.4. Washed filters were placed in scintillation vials and 10 ml RedySolv, (Brandel), was added and samples were counted in a Searle D-300 beta counter. Means and standard error statistics were calculated for triplicate experimental determinations in certain cases. Mean values were obtained from three or more separate determinations. The incubation time for the reaction mixture was 15 minutes at 37° C.

T1 sequence (P28223 whole entry): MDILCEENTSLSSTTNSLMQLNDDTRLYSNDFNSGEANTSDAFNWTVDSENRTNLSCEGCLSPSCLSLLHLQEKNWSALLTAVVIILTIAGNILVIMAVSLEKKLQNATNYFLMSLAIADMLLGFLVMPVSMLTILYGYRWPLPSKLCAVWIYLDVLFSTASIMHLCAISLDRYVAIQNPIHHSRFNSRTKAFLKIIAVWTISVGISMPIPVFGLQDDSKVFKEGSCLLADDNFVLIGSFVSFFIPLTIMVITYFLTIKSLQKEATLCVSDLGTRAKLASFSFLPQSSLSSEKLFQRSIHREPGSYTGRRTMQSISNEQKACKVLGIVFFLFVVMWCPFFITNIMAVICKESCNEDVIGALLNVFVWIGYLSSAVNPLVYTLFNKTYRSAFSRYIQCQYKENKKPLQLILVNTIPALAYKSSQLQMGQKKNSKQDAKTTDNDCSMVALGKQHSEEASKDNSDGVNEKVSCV

| Ki (5HT2A) [nM] | Ki (5HT2B) [nM] | Ki (5HT2C) [nM] | SMILES | 5-HT1c selective (5-HT1c receptor) | Ki (5HT2A; hydrochloride) [nM] | Ki (5HT2B; hydrochloride) [nM] | Ki (5HT2C; hydrochloride) [nM] |
| --- | --- | --- | --- | --- | --- | --- | --- |
|  |  |  | Cc1ccc2[nH]c3c(c2c1)[C@@H]1CCCC[C@H]1NC3 (relative stereo) [Example 6, Trans-10-methyl-2,3,4,4a,5,6,7,11c-octahydro-1H-indolo[2,3-c] quinoline, hydrochloride] | particularly 5-HT1c selective |  |  |  |
|  |  |  | COc1cc2c(cc1OC)CC1(CC2)N[C@H]2CCCC[C@@H]2c2c1[nH]c1ccc(C)cc21 (single isomer, unassigned; isomer 18) [Isomer 18(2), Trans-spiro-6,6-[2-(3,4-dimethoxy)-1,2,3,4-tetrahydronaphthyl]-10-methyl-2,3,4,4a,5,6,7,11a-octahydro-1 H-indolo[2,3-c]quinidine, hydrochloride] |  | 1970 | 2890 | 6210 |
| 124 | 9.56 | 221 | COc1ccc(CC2N[C@@H]3CCC[C@H]3c3c2[nH]c2ccc(C)cc32)cc1OC (relative stereo) [Example 8, Trans-5-(3,4-dimethoxybenzyl)-9-methyl-1,2,3,4,4a,5,6,10c-octahydrocyclopenta[a]pyrido [3,4-b]indole, hydrochloride] |  |  |  |  |
| 293 | 16.4 | 352 | COc1ccc(CC2N[C@@H]3CCCC[C@H]3c3c2[nH]c2ccc(C)cc32)cc1OC (relative stereo) [Example 11, Trans-6-(3,4-dimethoxybenzyl)-10-methyl-2,3,4,4a,5,6,7,11c-octahydro-1H-indolo[2,3-c]quinoline, hydrochloride] |  |  |  |  |
|  |  |  | Cc1ccc2[nH]cc([C@@H]3CCCC[C@H]3N)c2c1.Cl (relative stereo) [Example 3, Trans-3-(2-amino-cyclohexyl)-5-methylindole, hydrochloride] | particularly 5-HT1c selective |  |  |  |
| 1450 | 3520 | 9250 | COc1ccc(CC2N[C@@H]3CCCCC[C@H]3c3c2[nH]c2ccc(C)cc32)cc1OC (relative stereo) [Example 14, Trans-7-(3,4-dimethoxybenzyl)-11-methyl-1,2,3,4,5,5a,6,7,8,12a-decahydrocyclohepta[a]pyrido[3,4-b]indole, hydrochloride] |  |  |  |  |
| 172 | 121 | 783 | COc1ccc(CC2N[C@@H]3CCCC[C@H]3c3c2[nH]c2c(Cl)cccc32)cc1OC (relative stereo) [Example 12, Trans-8-chloro-6-(3,4-dimethoxybenzyl)-2,3,4,4a,5,6,7,11c-octahydro-1H-indolo[2,3-c]quinoline, hydrochloride] |  |  |  |  |
|  |  |  | COc1cc2c(cc1OC)CC1(CC2)N[C@H]2CCCC[C@@H]2c2c1[nH]c1ccc(C)cc21 (relative stereo) [Example 18, Trans-spiro-6,6-[2-(3,4-dimethoxy)-1,2,3,4-tetrahydronaphthyl]-10-methyl-2,3,4,4a,5,6,7,11a-octahydro-1 H-indolo[2,3-c]quinidine, hydrochloride] |  | 363 | 178 | 325 |
|  |  |  | COc1cc2c(cc1OC)CC1(CC2)N[C@H]2CCCC[C@@H]2c2c1[nH]c1ccc(C)cc21 (single isomer, unassigned; isomer 18) [Isomer 18(1), Trans-spiro-6,6-[2-(3,4-dimethoxy)-1,2,3,4-tetrahydronaphthyl]-10-methyl-2,3,4,4a,5,6,7,11a-octahydro-1 H-indolo[2,3-c]quinidine, hydrochloride] |  | 153 | 143 | 138 |
| 917 | 168 | 2170 | COc1ccc(CC2N[C@@H]3CCCC[C@H]3c3c2[nH]c2c(C)cc(C)cc32)cc1OC (relative stereo) [Example 13, Trans-6-(3,4-dimethoxybenzyl)-8,10-dimethyl-2,3,4,4a,5,6,7,11c-octahydro-1H-indolo[2,3-c]quinoline, hydrochloride] | particularly 5-HT1c selective |  |  |  |
| 264 | 367 | 1110 | Cc1cc(C)c2[nH]c3c(c2c1)[C@@H]1CCCC[C@H]1NC3Cc1cccc2ccccc12 (relative stereo) [Example 17, Trans-8,10-dimethyl-6-(1-naphthylmethyl)-2,3,4,4a,5,6,7,11c-octahydro-1H-indolo[2,3-c]quinoline, hydrochloride] |  |  |  |  |
|  |  |  | Cc1ccc2[nH]c3c(c2c1)[C@@H]1CCCC[C@H]1NC3Cc1cccc2ccccc12 (relative stereo) [Example 16, Trans-10-methyl-6-(1-naphthylmethyl)-2,3,4,4a,5,6,7,11c-octahydro-1H-indolo[2,3-c]quinoline, hydrochloride] | particularly 5-HT1c selective |  |  |  |
|  |  |  | Cl.N[C@@H]1CCCC[C@H]1c1c[nH]c2c(Cl)cccc12 (relative stereo) [Example 4, Trans-3-(2-amino-cyclohexyl)-7-chloroindole, hydrochloride] | particularly 5-HT1c selective |  |  |  |
| 556 | 106 | 1120 | COc1ccc(CC2N[C@@H]3CCC[C@H]3c3c2[nH]c2c(C)cc(C)cc32)cc1OC (relative stereo) [Example 10, Trans-5-(3,4-dimethoxybenzyl)-7,9-dimethyl-1,2,3,4,4a,5,6,10c-octahydrocyclopenta[a]pyrido [3,4-b]indole, hydrochloride] | particularly 5-HT1c selective |  |  |  |

| SMILES | Ki (5HT2A) [nM] | Ki (5HT2B) [nM] | Ki (5HT2C) [nM] | 5-HT1c selective (5-HT1c receptor) | Ki (5HT2A; hydrochloride) [nM] | Ki (5HT2B; hydrochloride) [nM] | Ki (5HT2C; hydrochloride) [nM] |
| --- | --- | --- | --- | --- | --- | --- | --- |
| COc1ccc(CC2N[C@@H]3CCC[C@H]3c3c2[nH]c2c(Cl)cccc32)cc1OC (relative stereo) [Example 9, Trans-7-chloro-5-(3,4-dimethoxybenzyl)-1,2,3,4,4a,5,6,10c-octahydrocyclopenta[a]pyrido [3,4-b]indole, hydrochloride] | 53.6 | 52.5 | 203 |  |  |  |  |
| Cc1ccc2[nH]c3c(c2c1)[C@@H]1CCC[C@H]1NC3Cc1cccc2ccccc12 (relative stereo) [Example 15, Trans-9-methyl-5-(1-naphthylmethyl)-1,2,3,4,4a,5,6,10c-octahydrocyclopenta[a]pyrido [3,4]-blindole, hydrochloride] | 33 |  | 52.1 |  |  |  |  |
| Clc1cccc2c3c([nH]c12)CN[C@@H]1CCCC[C@@H]31 (relative stereo) [Example 7, Trans-8-chloro-2,3,4,4a,5,6,7,11c-octahydro-1 H-indolo[2,3-c]quinoline, hydrochloride] | 278 | 668 | 977 | particularly 5-HT1c selective |  |  |  |
